Experimental data: patent US20050101783A1, “N-(heterocycle-methyl)alkylamine derivative, process for producing the same, and bactericide” (priority 2000, published 2005)

Key:
Aspergillus fumigatus = test: Antibacterial test to Aspergillus fumigatus (96-hole plate, IC80); type: cell-based; settings: YNB culture with 0.22% low melting point-agarose, 1×10^4 cell/ml, 25° C., 72 hours, absorbance at 620 nm
Experimental: (Antibacterial Test to Aspergillus fumigatus)
In the test example, a test was performed on the antibacterial of the compounds according to the present invention to Aspergillus fumigatus in the method later described.
Aspergillus fumigatus was cultivated in Sabouraud's agar at 37° C. for 3 days, after the spores to be used for the test were formed, the spore suspension was prepared. The spore suspension was suspended in YNB culture to which a 0.22% low melting point-agarose was added so as to allow the final concentration to be 1×10^4 cell/ml, and the solution was poured into each hole on a 96-hole flat-bottomed plate. Next, the dilution trains using each of the compounds according to the present invention were added, the solution was cultivated at 25° C. for 72 hours, and the propagation rate of the mold was evaluated by measuring the absorbance at 620 nm. With such a test, the propagation rate of the mold in the chemical-free test area was compared with this case to find the concentration of the compound where the propagation rate of the mold is suppressed by 80% as IC 80 (80% growth inhibition concentration).

[1] = test system: Erysiphe graminis f. sp tritici; test: Preventive effect test of wheat powdery mildew (wettable powder sprayed on potted wheat, preventive value); type: in vivo; settings: wettable powder suspended at 250 mg/l, sprayed on potted wheat at 100 l/10 a; morbidity investigated 9th to 14th day after inoculation
Experimental: (Preventive Effect Test of Erysiphe graminis f. sp […])
The wettable powders obtained by using each compound were diluted with water and were suspended at a predetermined concentration (250 mg/l) and the solution was sprayed over the first to second leaf stage-wheat (variety. Agriculture and Forestry No. 64) cultivated by using a square plastic pot (size: 6.4 cm×6.4 cm) at a rate of 100 1/10 a (are).
After the sprayed leaves were air-dried, the suspension of the spore of Erysiphe graminis f. sp tritici germ sampled from the contracted leaves were sprayed and inoculated over the sprayed leaf after air-dried, the leaves were kept at 20 to 24° C. under a high-humidity condition for 24 hours, then, the leaves were subjected to still standing in a greenhouse (temperature: 20 to 24° C. and relative humidity: 20 to 70 RH). The morbidity rate was investigated based on the following investigation standard on 9th to 14th day after the inoculation and the preventive value was calculated according to the following formula 1.

Botrytis cinerea = test: Antibacterial test to various phytopathogen, PDA plate culture, suppression of mold elongation; type: cell-based; settings: final concentration 100 mg/l, 1 to 3 days; for inhibition at 100 µg/mL: Botrytis cinerea, read-out: Inhibition Rate of Growth (suppression rate of the mold elongation, 5-step grade) B.c.
Experimental: (§1) (Antibacterial Test to Various Phytopathogen)
(§2) In the test examples, a test was performed on the antibacterial of the compounds according to the present invention to various phytopathogenic molds in the methods later described.
(§3) The compounds of 10 mg were each weighed and they were each dissolved in dimethylsulfoxide of 1 ml. The solution of 0.6 ml was added to PDA culture medium (potato-dextrose-agar culture medium) of 60 ml at about 60° C, the solutions were well mixed in an Erlenmeyer flask of 100 ml, and the solution was poured into a Schale and was solidified therein to prepare a plate culture containing the compound according to the present invention of final concentration of 100 mg/l.
(§4) On the other hand, the sample molds on the plate cultured beforehand were punched by a cork borer of diameter of 4 mm, and they were inoculated on the plate culture containing the aforementioned chemical material. After the inoculation, the molds were inoculated at the appropriate growth temperatures of each mold (for the appropriate growth temperatures, for example, the Reference, LIST OF CULTURE 1996 MICROORGANISM 10th edition published by Institute for Fermentation can be referred to.) for 1 to 3 days, the growth rates of the molds were evaluated by measuring the diameter of a colony. The growth rate of the mold thus obtained on the plate culture containing the chemical material is compared with the growth rate of the mold in the non-addition area of the chemical material to find the suppression rate of the mold elongation by the following formula 3. R=100 (dc−dt)/dc (Formula 3) [wherein, R is the suppression rate of the mold elongation (%), dc is the diameter of a colony on an untreated plate and dt is the diameter of a colony on a chemical-treated plate, respectively.]
(§5) • 5: Mold whose suppression rate of the mold elongation is • 90% or higher • 4: Mold whose suppression rate of the mold elongation is less than 90% and 70% or higher • 3: Mold whose suppression rate of the mold elongation is less than 70% and 40% or higher • 2: Mold whose suppression rate of the mold elongation is less than 40% and 20% or higher • 1: Mold whose suppression rate of the mold elongation is less than 20%
(§6) In addition, the meanings of the abbreviated letters in Table 22 are as follows: • B. c.; Botrytis cinerea • P. h.; Pseudocercosporella herpotrichoides • M. n.; Microdohium nivale • L. n.; Leptosphaeria nodorum

Leptosphaeria nodorum = test: as above; type: cell-based; settings: final concentration 100 mg/l, 1 to 3 days; for inhibition at 100 µg/mL: Parastagonospora nodorum, read-out: Inhibition Rate of Growth (suppression rate of the mold elongation, 5-step grade) L.n.
Experimental: as §1, §2, §3, §4, §5, §6

Microdohium nivale = test: as above; type: cell-based; settings: final concentration 100 mg/l, 1 to 3 days; for inhibition at 100 µg/mL: read-out: Inhibition Rate of Growth (suppression rate of the mold elongation, 5-step grade) M.n.
Experimental: as §1, §2, §3, §4, §5, §6

[2] = test system: Pseudocercosporella herpotrichoides; test: as above; type: cell-based; settings: final concentration 100 mg/l, 1 to 3 days; for inhibition at 100 µg/mL: Oculimacula yallundae, read-out: Inhibition Rate of Growth (suppression rate of the mold elongation, 5-step grade) P.h.
Experimental: as §1, §2, §3, §4, §5, §6

Venturia inaequalis = test: as above; type: cell-based; settings: final concentration 100 mg/l, 1 to 3 days; for inhibition at 100 µg/mL: Venturia inaequalis, read-out: Inhibition Rate of Growth (suppression rate of the mold elongation, 5-step grade) V.i.
Experimental: as §1, §2, §3, §4, §5
V. i.: Venturia inaequalis

cucumber gray mold = test: Preventive effect test of cucumber gray mold (wettable powder sprayed on potted cucumber, preventive value); type: in vivo; settings: wettable powder suspended at 250 mg/l, sprayed on potted cucumber at 100 l/10 a; morbidity investigated 4th to 6th day after inoculation
Experimental: (Preventive Effect Test of Cucumber Gray Mold)
The wettable powders obtained by using each compound were diluted with water and were suspended at a predetermined concentration (250 mg/l) and the solution was sprayed over the first to second leaf stage-cucumber (variety: “Sagamihanpakufushinari”) cultivated by using a square plastic pot (size: 6.4 cm×6.4 cm) at a rate of 100 1/10 a.
After the sprayed leaves were air-dried, a paper disk where the solution of the spore of the gray mold suspended with water was impregnated was put on the aforementioned sprayed leaves, and the leaves were contracted in a glass greenhouse (temperature: 20 to 24° C. and relative humidity: 20 to 70 RH). The morbidity rate was investigated based on the following investigation standard on 4th to 6th day after the inoculation and the preventive value was calculated according to the following formula 2.

cucumber powdery mildew = test: Preventive effect of cucumber powdery mildew (wettable powder sprayed on potted cucumber, preventive value); type: in vivo; settings: wettable powder suspended at 100 mg/l, sprayed on potted cucumber at 100 l/10 a; morbidity investigated 9th to 14th day after inoculation
Experimental: (Preventive Effect of Cucumber Powdery Mildew)
The wettable powders obtained by using each compound were diluted with water and were suspended at a predetermined concentration (100 mg/l) and the solution was sprayed over the first to second leaf stage-cucumber (variety: “Sagamihanpakufushinari”) cultivated by using a square plastic pot (size: 6.4 cm×6.4 cm) at a rate of 100 1/10 a.
After the sprayed leaves were air-dried, the spore was inoculated over the aforementioned air-dried leaves from the contracted leaves with a brush, and the contraction was performed in a glass greenhouse (temperature: 20 to 24° C. and relative humidity: 20 to 70 RH). The morbidity rate was investigated based on the same investigation standard as that in the preventive effect test of the cucumber gray mold on 9th to 14th day after the inoculation, and the preventive value was calculated according to the aforementioned formula 2.

Structure (SMILES)	80% Growth Inhibition Concentration (IC80) (Aspergillus fumigatus)	Preventive Value (%) [1]	Preventive Value (%) (cucumber gray mold)	Preventive Value (%) (cucumber powdery mildew)	other results
CC(C)(CNCc1ccccn1)Cc1ccc(C(C)(C)C)cc1 [Compound I-1]	5 µg/mL	–	–	–	–
CC(C)(CNCc1ccc(Cl)nc1)Cc1ccc(C(C)(C)C)cc1 [Compound I-2]	38 µg/mL	100%	–	–	–
CC(C)(CNCc1ccc(Cl)nc1)Cc1ccccc1Cl [Compound I-3]	9 µg/mL	–	–	–	–
CC(C)(CNCc1cnc(Cl)cn1)Cc1ccc(C(C)(C)C)cc1 [Compound I-5]	9 µg/mL	–	–	–	–
Cn1cc(CNCC(C)(C)Cc2ccccc2F)cn1 [Compound I-7]	150 µg/mL	–	–	–	–
Cn1cc(CNCC(C)(C)Cc2ccc(F)cc2F)cn1 [Compound I-9]	150 µg/mL	–	–	–	–
CN(Cc1ccc(Cl)nc1)CC(C)(C)Cc1ccc(C(C)(C)C)cc1 [Compound I-18, N-[3-(4-t-butylphenyl)-2,2-dimethylpropyl]-6-chloro-N-methyl-3-pyridylmethylamine]	–	100%	–	–	inhibition at 100 µg/mL (Botrytis cinerea): ≥ 90%; inhibition at 100 µg/mL (Leptosphaeria nodorum): ≥ 90%; inhibition at 100 µg/mL (Microdohium nivale): ≥ 90%; inhibition at 100 µg/mL [2]: ≥ 90%; inhibition at 100 µg/mL (Venturia inaequalis): ≥ 90%
CC(C)(CNCc1ccc(Cl)nc1)Cc1ccc(OC(F)(F)F)cc1 [Compound I-45, 6-chloro-N-[2,2-dimethyl-3-(4-trifluoromethoxyphenyl)propyl]-3-pyridylmethylamine]	–	100%	100%	100%	inhibition at 100 µg/mL (Botrytis cinerea): ≥ 90%; inhibition at 100 µg/mL (Leptosphaeria nodorum): ≥ 90%; inhibition at 100 µg/mL (Microdohium nivale): ≥ 90%; inhibition at 100 µg/mL [2]: ≥ 90%; inhibition at 100 µg/mL (Venturia inaequalis): ≥ 90%
CC(CCc1cc(Cl)cc(Cl)c1)CN(C)Cc1ccc(Cl)nc1 (centres unmarked) [Compound I-57]	–	100%	–	100%	Inhibition Rate of Growth (suppression rate of the mold elongation, 5-step grade) B.c. (Botrytis cinerea): 5 (Mold whose suppression rate of the mold elongation is • 90% or higher); Inhibition Rate of Growth (suppression rate of the mold elongation, 5-step grade) L.n. (Leptosphaeria nodorum): 5 (Mold whose suppression rate of the mold elongation is • 90% or higher); Inhibition Rate of Growth (suppression rate of the mold elongation, 5-step grade) M.n. (Microdohium nivale): 5 (Mold whose suppression rate of the mold elongation is • 90% or higher); Inhibition Rate of Growth (suppression rate of the mold elongation, 5-step grade) P.h. [2]: 5 (Mold whose suppression rate of the mold elongation is • 90% or higher); Inhibition Rate of Growth (suppression rate of the mold elongation, 5-step grade) V.i. (Venturia inaequalis): 5 (Mold whose suppression rate of the mold elongation is • 90% or higher)
CC(CCc1cccc(OC(F)(F)F)c1)CN(C)Cc1ccc(Cl)nc1 (centres unmarked) [Compound I-58, 6-chloro-N-[2-methyl-4-(3-trifluoromethoxyphenyl)butyl]-N-methyl-3-pyridylmethylamine]	–	100%	–	–	inhibition at 100 µg/mL (Botrytis cinerea): ≥ 90%; inhibition at 100 µg/mL (Leptosphaeria nodorum): ≥ 90%; inhibition at 100 µg/mL (Microdohium nivale): ≥ 90%; inhibition at 100 µg/mL [2]: ≥ 90%; inhibition at 100 µg/mL (Venturia inaequalis): ≥ 90%
CC(CCc1ccc(OC(F)(F)F)cc1)CN(C)Cc1ccc(Cl)nc1 (centres unmarked) [Compound I-60]	–	100%	100%	–	Inhibition Rate of Growth (suppression rate of the mold elongation, 5-step grade) B.c. (Botrytis cinerea): 5 (Mold whose suppression rate of the mold elongation is • 90% or higher); Inhibition Rate of Growth (suppression rate of the mold elongation, 5-step grade) L.n. (Leptosphaeria nodorum): 5 (Mold whose suppression rate of the mold elongation is • 90% or higher); Inhibition Rate of Growth (suppression rate of the mold elongation, 5-step grade) M.n. (Microdohium nivale): 5 (Mold whose suppression rate of the mold elongation is • 90% or higher); Inhibition Rate of Growth (suppression rate of the mold elongation, 5-step grade) P.h. [2]: 5 (Mold whose suppression rate of the mold elongation is • 90% or higher); Inhibition Rate of Growth (suppression rate of the mold elongation, 5-step grade) V.i. (Venturia inaequalis): 5 (Mold whose suppression rate of the mold elongation is • 90% or higher)
CN(Cc1ccc(Br)nc1)CC(C)(C)Cc1ccc(OC(F)(F)F)cc1 [Compound I-139]	–	100%	100%	100%	–
CN(Cc1ccc(F)nc1)CC(C)(C)Cc1ccc(OC(F)(F)F)cc1 [Compound I-140]	–	100%	100%	100%	–
CN(Cc1ccc(C(F)(F)F)nc1)CC(C)(C)Cc1ccc(OC(F)(F)F)cc1 [Compound I-141]	–	100%	100%	100%	–
CN(Cc1cnc(Cl)s1)CC(C)(C)Cc1ccc(OC(F)(F)F)cc1 [Compound I-142]	–	100%	100%	100%	–
